Experiment: Solubility in water at 20° C. of the iodine compounds
Settings: % means % by weight

SMILES	Solubility in water (20° C.)
CC(C)(I)C(=O)O [Example 1, 2-Iodo-2-methylpropionic acid]	1.9%
CC(I)C(N)=O (centres unmarked) [Example 2, 2-Iodopropionamide]	1.2%
CC(C)(I)C(=O)OCCO [Example 3, 2-Hydroxyethyl 2-iodo-2-methylpropionate]	3.2%
CC(C)(I)C(=O)[O-].[Na+] [Example 5, Sodium 2-iodo-2-methylpropionate]	>10%
O=C([O-])C(I)c1ccccc1.[Na+] (centres unmarked) [Example 6, Sodium 2-iodo-2-phenylacetate]	>10%
O=C(O)C(I)c1ccccc1 (centres unmarked) [Reference Example 1, 2-Iodo-2-phenylacetic acid, reference compound]	0.1%
CCOC(=O)C(C)I (centres unmarked) [Reference Example 4, Ethyl 2-iodopropionate, reference compound]	0.2%
CCOC(=O)C(C)(C)I [Reference Example 5, Ethyl 2-iodo-2-methylpropionate, reference compound]	<0.1%
